This note sets out measurements from patent US10196363B2, “Dihydropyrimidin-2-one compounds and medical use thereof” (JAPAN TOBACCO INC., priority 2014, dated 2019).

The target of one assay is T1, mouse RORγ (Mus musculus, UniProt P51450).
T1 construct: mouse RORγ, from Ile251 to Lys516; expressed in transfected cells; host or cells: CHO cells (Chinese hamster ovary), transient co-transfection with pG5-Luc
T1 sequence (P51450 251-516): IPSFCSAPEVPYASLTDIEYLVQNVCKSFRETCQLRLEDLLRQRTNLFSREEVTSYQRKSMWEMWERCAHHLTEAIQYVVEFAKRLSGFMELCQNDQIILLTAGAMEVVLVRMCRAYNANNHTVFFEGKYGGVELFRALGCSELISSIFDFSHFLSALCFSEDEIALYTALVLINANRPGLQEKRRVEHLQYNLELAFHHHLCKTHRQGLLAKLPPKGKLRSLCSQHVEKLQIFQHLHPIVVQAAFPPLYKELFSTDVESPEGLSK
The assay is described as follows: In vitro assay of inhibitory effect against RORγ transcriptional activity (GAL4-mRORγ LBD luciferase reporter gene assay in CHO cells). Format: cell-based. To be noted: for EC50: GAL4-mRORγ LBD / pG5-Luc in CHO cells, 2 days incubation; for mRORγ luciferase activity, %-of-control: value in parentheses beside the > EC50 bound, vehicle-control 0.2% DMSO alone = 100%. Here is the method: (§1) In Vitro Assay of Inhibitory Effect Against RORγ Transcriptional Activity
(§2) Inhibitory effect of a test article on transcriptional activity of RORγ was measured by means of the following reporter gene assay.
(§3) cDNA encoding human and mouse RORγ ligand binding domain (LBD) were obtained based on the sequences of human RORγ (Genebank registered number NM_005060.3) and mouse RORγ (Genebank registered number NM_011281.2) (LBD sequence: human RORγ, from Ser253 to Lys518; mouse RORγ, from Ile251 to Lys516).
(§4) The LBD cDNA of human or mouse RORγ was inserted into pFA-CMV vector (Strategene), which expresses GAL4-DNA binding domain fusion protein. The resulting plasmids are hereinafter referred to as GAL4-hRORγ plasmid and GAL4-mRORγ plasmid, respectively.
(§5) GAL4-hRORγ plasmid or GAL4-mRORγ plasmid was transiently co-transfected into Chinese hamster ovary cells (CHO cells) with pG5-Luc (Promega), a reporter plasmid expressing firefly luciferase depending on GAL4.
(§6) TransIT (Registered trademark) CHO transfection reagent (Mirus) was used to co-transfect GAL4-hRORγ plasmid or GAL4-mRORγ plasmid into CHO cells with pG5-Luc plasmid. One day before the assay, CHO cells were suspended in HAM F-12 Nutrient medium containing 10 v/v % fetal bovine serum and seeded at 6×10^6 cells per 175 cm^2 cell culture flask. Fifty four micro litters of TransIT (Registered trademark) CHO reagent was added into a 15 ml tube containing 1.16 mL of HAM F-12 Nutrient medium without fetal bovine serum, and mixed and incubated at room temperature for 10 min. Thirty six micro litters of plasmid solution containing the GAL4-hRORγ plasmid (400 ng), pG5-Luc plasmid (9000 ng) and pcDNA3 plasmid (8600 ng) were added into the tube and mixed gently. In case of mouse assay, a plasmid solution containing the GAL4-mRORγ plasmid (250 ng), pG5-Luc plasmid (9000 ng) and pcDNA3 plasmid (8750 ng) was added, instead. The mixture was incubated at room temperature for 10 min. Nine micro litters of CHO Mojo Reagent were then added into each tube and mixed gently. The mixture was incubated at room temperature for 10 min. The resultant transfection reagent was applied to the cell culture. After incubation at 37° C., 5% CO2 for 4 hours, the plasmid-transfected CHO cells were harvested with a trypsin treatment. The collected cells were resuspended in HAM F-12 Nutrient medium supplemented with 10 v/v % fetal bovine serum and plated into a 384-well-white plate at 8,000 cells/50 μL/well. The plate was incubated at room temperature for 1 hour and then further incubated at 37° C., 5% CO2 for 3 hours. The test articles were dissolved in dimethylsulfoxide (DMSO) to obtain a concentration of 10 mM. The resulting solution was diluted with a medium just before use and added to the cells in the plate to prepare 8 different concentrations of the test article. The final concentration of DMSO was 0.2 v/v %. After the addition of the test articles, the cells were incubated at 37° C., 5% CO2 for 2 days.
(§7) RORγ transcriptional activity was detected as the intracellular luciferase activity using SteadyLite HTS Reporter Gene Assay System (Perkin Elmer). StedyLite Reagent was diluted five-fold into a solution containing Extension reagent (10 mM Tricine, 0.2% w/v BSA, 0.02% v/v Tween-20) to obtain the luciferase substrate solution. After the measurement of the cell viability using Resazurin, the culture media in the plate were removed, and then the luciferase substrate solution was added into each well. After the incubation at room temperature for 10 minutes, luminescence of each well was measured by a microplate reader. The luciferase activity derived from the luminescence count in the vehicle-control well treated with 0.2% DMSO alone was defined as 100%, and the luciferase activity in the test article was calculated as a percentage (%-of-control) based on the value of the vehicle-control. EC50 value of test article was calculated by curve fitting with GraphPad Prism. […]

The target in another assay is T2, human RORγ (Homo sapiens, UniProt P51449).
T2 construct: human RORγ, from Ser253 to Lys518; expressed in transfected cells; host or cells: CHO cells (Chinese hamster ovary), transient co-transfection with pG5-Luc
T2 sequence (P51449 253-518): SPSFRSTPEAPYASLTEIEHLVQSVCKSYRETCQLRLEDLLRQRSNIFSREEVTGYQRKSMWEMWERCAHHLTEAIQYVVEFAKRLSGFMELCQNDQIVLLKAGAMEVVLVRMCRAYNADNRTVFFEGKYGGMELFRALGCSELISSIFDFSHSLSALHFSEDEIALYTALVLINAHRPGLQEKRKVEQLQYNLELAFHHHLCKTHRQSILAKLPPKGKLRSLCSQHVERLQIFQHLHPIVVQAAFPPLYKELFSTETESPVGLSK
Description: In vitro assay of inhibitory effect against RORγ transcriptional activity (GAL4-hRORγ LBD luciferase reporter gene assay in CHO cells). The class given is cell-based. The settings on record: for EC50: GAL4-hRORγ LBD / pG5-Luc in CHO cells, 2 days incubation; for hRORγ luciferase activity, %-of-control: value in parentheses beside the > EC50 bound, vehicle-control 0.2% DMSO alone = 100%. The procedure: as §1, §2, §3, §4, §5, §6, §7
(In general: A reporter such as luciferase makes a cellular process visible.)

Where only a bound is given, the exact number is not on record here.

Usually EC50 stands for the concentration needed to bring the measured effect to its halfway point. The low end stands for greater potency, the high end for weaker potency. For `CCCCc1ccc(C2(C)NC(=O)N(CCCC(=O)O)C=C2C(C)C)cc1Cl` (racemic) [Example 28], the EC50 came out at 82 nM on mouse RORγ and 187 nM at human RORγ.

As to `CC(C)C1=CN([C@H]2CC[C@H](C(=O)O)CC2)C(=O)NC1(C)c1ccc(CCC(C)(C)C)c(Cl)c1` (mixture of isomers) [Example 29], the EC50 at mouse RORγ is 49 nM; on human RORγ, 36 nM.

For `CC(C)C1=CN([C@H]2CC[C@@H](C(=O)O)CC2)C(=O)NC1(C)c1ccc(CCC(C)(C)C)c(Cl)c1` (mixture of isomers) [Example 30], the results for the EC50 on mouse RORγ and on human RORγ were 47 nM and 60 nM, respectively.

For the compound `CCCCCc1ccc(C2(C)NC(=O)N(CCCC(=O)O)C=C2C(C)C)cc1Cl` (racemic) [Example 53], the values for the EC50 at mouse RORγ and on human RORγ were 21 nM and 36 nM, respectively.

`CC(C)(C)COc1ccc(C2NC(=O)NC=C2C2CC(C(=O)O)C2)cc1Cl` (racemic) [Example 62]: the EC50 on mouse RORγ amounted to 520 nM; at human RORγ it was 665 nM.

Consider `CCCCc1ccc(C2(C)NC(=O)N(CCCC(=O)O)C=C2C(C)C)cc1F` (racemic) [Example 70], for which the concentration giving a half-maximal response (EC50) at mouse RORγ came to 133 nM; on human RORγ, 251 nM.

Consider `CC(C)C1=CN(C[C@H]2C[C@H](C(=O)O)C2)C(=O)NC1(C)c1ccc(CCC(C)(C)C)c(Cl)c1` (mixture of isomers) [Example 80], for which the EC50 on mouse RORγ stood at 17 nM; on human RORγ it was 16 nM.

With `CC(C)(C)CCc1ccc(C2(C)NC(=O)N(CCCC(=O)O)C=C2C2CN(S(C)(=O)=O)C2)cc1Cl` (racemic) [Example 81], the EC50 at mouse RORγ was 2490 nM; on human RORγ, 2580 nM.

For `CCCCc1ccc(C2(C)NC(=O)N(CCCC(=O)O)C=C2C(C)C)cc1` (racemic) [Example 84], the EC50 is 502 nM at mouse RORγ and 746 nM on human RORγ.

In the case of `CCCCc1ccc(C2(C)NC(=O)N(CCCC(=O)O)C=C2C(C)C)cc1OCc1ccccc1` (racemic) [Example 85], the EC50 at mouse RORγ is 368 nM; on human RORγ, 545 nM.

As to `CC1=C(C(C)C)C(C)(c2ccc(CCC(C)(C)C)c(Cl)c2)NC(=O)N1CCCC(=O)O` (racemic) [Example 90], the EC50 at mouse RORγ is 18 nM; on human RORγ, 15 nM.

As for `CC(C)C1=CN(CCCC(=O)O)C(=O)NC1(C)c1ccc(OCCC(F)(F)F)cc1` (racemic) [Example 105], the results for the EC50 at mouse RORγ and on human RORγ were 1690 nM and 2790 nM, respectively.

Regarding `CC(C)Cc1ccc(C2(C)NC(=O)N(CCCC(=O)O)C=C2C(C)C)cc1` (racemic) [Example 106], the EC50 at mouse RORγ was determined as 616 nM; at human RORγ it was 1160 nM.

`CCOC(=O)c1ccc(C2(C)NC(=O)N(CCC(=O)O)C=C2C(C)C)cc1Cl` (racemic) [Example 114]: the EC50 worked out at 11000 nM at mouse RORγ and 14900 nM at human RORγ.

For `CC(C)(C)C#Cc1ccc(C2NC(=O)N(CCCC(=O)O)C=C2C(C)(C)C)cc1Cl` (racemic) [Example 187], the results for the EC50 at mouse RORγ and on human RORγ were 63 nM and 172 nM, respectively.

In the case of `CC(C)=Cc1ccc(C2(C)NC(=O)N(CCCC(=O)O)C=C2C(C)C)cc1` (racemic) [Example 188], the EC50 on mouse RORγ was determined as 1130 nM; on human RORγ it was 2610 nM.

As for `CC(C)(C)COc1ccc(C2NC(=O)N(CCCC(=O)O)C=C2C(C)(C)C)cc1Cl` (single isomer, unassigned) [Example 5, 4-{5-tert-butyl-4-[3-chloro-4-(2,2-dimethylpropoxy)-phenyl]-2-oxo-3,4-dihydro-2H-pyrimidin-1-yl}-butanoic Acid], the EC50 worked out at 24 nM at mouse RORγ and 34 nM at human RORγ.

As to `CC(C)(C)COc1ccc(C2NC(=O)N(CCCC(=O)O)C=C2C(C)(C)C)cc1Cl` (single isomer, unassigned) [Example 6], at mouse RORγ, the EC50 was above 8000 nM and the “mRORγ luciferase activity, %-of-control” value is recorded as “(75%)”. Also, at human RORγ, the concentration for a half-maximal effect (EC50) was above 8000 nM and the “hRORγ luciferase activity, %-of-control” value is recorded as “(76%)”.

On to `CC(C)(C)CCc1ccc(C2NC(=O)N(CCCC(=O)O)C=C2C(C)(C)C)cc1Cl` (single isomer, unassigned) [Example 10], for which the results for the EC50 on mouse RORγ and at human RORγ were 17 nM and 9 nM, respectively.

Take `CC(C)(C)CCc1ccc(C2NC(=O)N(CCCC(=O)O)C=C2C(C)(C)C)cc1Cl` (single isomer, unassigned) [Example 11]: at mouse RORγ, the half-maximal effective concentration (EC50) is above 8000 nM and the “mRORγ luciferase activity, %-of-control” value is “(79%)”. Moreover, on human RORγ, the EC50 was above 8000 nM and the “hRORγ luciferase activity, %-of-control” value was “(87%)”.

Turning to `CC(C)C1=CN(CCCC(=O)O)C(=O)NC1(C)c1ccc(OCC(C)(C)C)c(Cl)c1` (single isomer, unassigned) [Example 12], the EC50 was found to be 17 nM on mouse RORγ and 23 nM on human RORγ.

Consider `CC(C)C1=CN(CCCC(=O)O)C(=O)NC1(C)c1ccc(OCC(C)(C)C)c(Cl)c1` (single isomer, unassigned) [Example 13], for which the EC50 on mouse RORγ was 5930 nM; on human RORγ, 6570 nM.

With `CC(C)C1=CN(CCC(C)C(=O)O)C(=O)NC1(C)c1ccc(OCC(C)(C)C)c(Cl)c1` (single isomer, unassigned) [Example 19], the results for the EC50 on mouse RORγ and at human RORγ were 1210 nM and 2290 nM, respectively.

`CC(C)C1=CN(CCC(C)C(=O)O)C(=O)NC1(C)c1ccc(OCC(C)(C)C)c(Cl)c1` (single isomer, unassigned) [Example 20]: the values for the EC50 on mouse RORγ and at human RORγ were 2520 nM and 2930 nM, respectively.

Turning to `CC(C)C1=CN(CCC(C)C(=O)O)C(=O)NC1(C)c1ccc(CCC(C)(C)C)c(Cl)c1` (single isomer, unassigned) [Example 24], the EC50 at mouse RORγ was found to be 2930 nM; on human RORγ, 2940 nM.

Regarding `CC(C)C1=CN(CCC(C)C(=O)O)C(=O)NC1(C)c1ccc(CCC(C)(C)C)c(Cl)c1` (single isomer, unassigned) [Example 25], the EC50 at mouse RORγ and on human RORγ was below 32 nM each time.

With `CCC(C)C1=CN(CCCC(=O)O)C(=O)NC1(C)c1ccc(CCC(C)(C)C)c(Cl)c1` (single isomer, unassigned) [Example 33], the EC50 turned out to be 617 nM at mouse RORγ and 435 nM on human RORγ.

As for `CCC(C)C1=CN(CCCC(=O)O)C(=O)NC1(C)c1ccc(CCC(C)(C)C)c(Cl)c1` (single isomer, unassigned) [Example 34], the EC50 at mouse RORγ turned out to be 21 nM; on human RORγ, 13 nM.
